Data on 10 compounds can be found in patent publication US20250326715A1, “NOVEL MAIN PROTEASE INHIBITORS, AND COMPOSITIONS AND METHODS THEREOF” (University of Massachusetts, priority 2023, published 2025).

Like-named read-outs stand apart in the source and are kept apart here. Where a SMILES comes first, the peptide text is derived from it.

Data set [1] has as its target T1, SARS-CoV-2 M^Pro (Severe acute respiratory syndrome coronavirus 2, UniProt P0DTD1). Briefly: Determination of IC50 values for SARS-CoV-2 M^Pro (fluorogenic peptide substrate, end-point). The class given is biochemical. To be noted: 12.5 nM M^Pro, 20 min preincubation, 30 μM substrate; read-out: M^Pro IC50.
Another data set has as its target SARS-CoV-2 PL^Pro (Severe acute respiratory syndrome coronavirus 2, UniProt P0DTD1). Briefly: Determination of IC50 values for SARS-CoV-2 PL^Pro (Z-RLRGG-AMC substrate). The conditions noted are these: 30 nM PL^Pro, 20 min preincubation; read-out: PL^Pro IC50. The class given is biochemical.
The target in data set [2] is T1, SARS-CoV-2 M^Pro. Briefly: Determination of kinact/KI values for SARS-CoV-2 M^Pro (time- and concentration-dependent inactivation). The class given is biochemical. The method, then:
where νo is the initial velocity of uninhibited reaction and νi is the initial velocity in the presence of inhibitor. All measurements were done in triplicate. Determination of kinact/KI values for SARS-CoV-2 M^Pro
Time- and concentration-dependent inactivation assays were done by following a similar protocol as described for Ki determination. M^Pro (12.5 nM final) was treated with the peptide-substrate (30 μM final) and test inhibitor (0-80 μM for D-FF(R/Cit)-(CMK/CMKyne); 0-1.25 mM for SM136-145) at time=0 to initiate inactivation process. The total volume of the assay mixture was 50 μL. Time-dependent increase in fluorescence was monitored at 485 nm with excitation at 340 nm for a period of 20-25 min. The observed rates (kobs) for the peptide cleavage in both the presence and absence of inhibitor were determined by fitting to a single-phase association equation. The resulting kobs values were plotted against the concentrations of inhibitor and linear fits were used to derive the slope that afforded the kinact/KI values. All measurements were done in triplicate.

In data set [3] the target is T1, SARS-CoV-2 M^Pro. The data set is described as follows: Determination of KI values for SARS-CoV-2 M^Pro (initial velocity, competitive inhibition). It counts as biochemical. The conditions noted are these: competitive inhibition, initial velocity; read-out: M^Pro Ki.
Another data set concerns the target T2, Cathepsin B (Homo sapiens, UniProt P07858).
T2 construct: purchased Abcam ab185438
The data set is described as follows: Cathepsin B inhibition assay kit (Abcam), IC50. It counts as biochemical. The conditions noted are these: 20 min pretreatment. As for the experimental part:
(§1) Determination of IC50 and kinact/KI values for Cathepsins L and B
IC50 and kinact/KI values of the inhibitors were determined using commercially available inhibition assay kits (Abcam) by following the manufacturer's protocol. For IC50 values, enzymes were pretreated with test inhibitor (0-50 μM) for 20 min prior to adding the fluorogenic substrate, and end-point fluorescence was recorded after 30 min. For the kinact/KI values, enzymes were treated with inhibitor and substrate simultaneously and increase in fluorescence was monitored over 60 min. The observed rates (kobs) were determined by fitting to a single-phase association equation. The resulting kobs values were plotted against the concentrations of inhibitor and the data were fit to equation 2 to derive the kinact/KI values,
using GraphPad Prism, where kinact is the maximal rate of inactivation, KI is the concentration of inhibitor that affords half-maximal inactivation, and [I] is the concentration of inhibitor. When kobs with [I] varied linearly, kinact/KI was determined from the slope of the line. All the experiments were performed in triplicate. All fluorescence measurements were taken at absorption/emission wavelength of 400/505 nm using an EnVision 2105 plate reader. Crystallization of M^Pro in Complex with Inhibitors

In the next data set the target is T3, Cathepsin L (Homo sapiens, UniProt P07711).
T3 construct: purchased Abcam ab197012
The data set is described as follows: Cathepsin L inhibition assay kit (Abcam), IC50 and kinact/KI. It counts as biochemical. To be noted: for IC50: 20 min pretreatment; for kinact/KI: read-out: Cathepsin L kinact/KI. The method, then: as §1
IC50 and kinact/KI values of the inhibitors were determined using commercially available inhibition assay kits (Abcam) by following the manufacturer's protocol. […] The observed rates (kobs) were determined by fitting to a single-phase association equation. The resulting kobs values were plotted against the concentrations of inhibitor and the data were fit to equation 2 to derive the kinact/KI values,
using GraphPad Prism, where kinact is the maximal rate of inactivation, KI is the concentration of inhibitor that affords half-maximal inactivation, and [I] is the concentration of inhibitor. When kobs with [I] varied linearly, kinact/KI was determined from the slope of the line. All the experiments were performed in triplicate. […] Crystallization of M^Pro in Complex with Inhibitors

The next data set concerns SARS-CoV-2. Briefly: microbe, parasite or virus in culture. The class given is cell-based. To be noted: A549-hACE2 cells.
A further data set concerns CYP3A4/5. To be noted: data from medRxiv preprint; cited from earlier work.
The subject of a further data set is A549-hACE2 cells. To be noted: Table 2; data from medRxiv preprint; cited from earlier work.
For data set [4] the following is noted: data from medRxiv preprint; cited from earlier work.

T3 sequence (P07711 114-333): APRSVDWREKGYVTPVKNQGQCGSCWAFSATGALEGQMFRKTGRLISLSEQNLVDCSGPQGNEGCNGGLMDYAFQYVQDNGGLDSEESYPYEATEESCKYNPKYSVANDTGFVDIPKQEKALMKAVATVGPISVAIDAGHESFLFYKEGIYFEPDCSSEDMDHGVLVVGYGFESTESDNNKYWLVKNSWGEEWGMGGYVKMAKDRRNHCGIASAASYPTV

On to `NC(=O)NCCC[C@H](NC(=O)[C@H](Cc1ccccc1)NC(=O)[C@H](N)Cc1ccccc1)C(=O)CCl` [D-FFCit-CMK] (HELM PEPTIDE1{[dF].F.[Cit].[ClC[*:1]]}$$$$V2.0), for which the IC50 is 0.13 µM on SARS-CoV-2 M^Pro [1] and more than 50 µM on SARS-CoV-2 PL^Pro.
The matching figures for `N=C(N)NCCC[C@H](NC(=O)[C@H](Cc1ccccc1)NC(=O)[C@H](N)Cc1ccccc1)C(=O)CCl` [D-FFR-CMK] (HELM PEPTIDE1{[dF].F.R.[ClC[*:1]]}$$$$V2.0): 0.1 µM and 5 µM.
Turning to `CCOC(=O)C=CC(CC1CCNC1=O)NC(=O)C(Cc1ccc(F)cc1)NC(=O)C(Cc1ccccc1)NC(=O)OC(C)(C)C` (centres unmarked) [SM136], the IC50 on SARS-CoV-2 M^Pro [1] is 20 µM. On SARS-CoV-2 M^Pro [2] (read-out: M^Pro kinact/KI), the kinact/KI is 12.8 M⁻¹ s⁻¹. For the same compound, the Ki on SARS-CoV-2 M^Pro [3] was 73 µM.
Turning to `CCOC(=O)C=CC(CC1CCNC1=O)NC(=O)C(Cc1ccc(F)cc1)NC(=O)C(N)Cc1ccccc1` (centres unmarked) [SM137], the IC50 on SARS-CoV-2 M^Pro [1] was 10 µM. Further, the kinact/KI on SARS-CoV-2 M^Pro [2] (read-out: M^Pro kinact/KI) is 30 M⁻¹ s⁻¹. Moreover, at SARS-CoV-2 M^Pro [3], the inhibitory constant (Ki) amounted to 50 µM.
Turning to `CCOC(=O)C=CC(CC1CCNC1=O)NC(=O)C(Cc1ccc(F)cc1)NC(=O)C(Cc1ccc(F)cc1)NC(=O)OC(C)(C)C` (centres unmarked) [SM138], on SARS-CoV-2 M^Pro [2] (read-out: M^Pro kinact/KI), the kinact/KI amounted to 10.8 M⁻¹ s⁻¹.
On to `CCOC(=O)C=CC(CC1CCNC1=O)NC(=O)C(Cc1ccc(F)cc1)NC(=O)C(N)Cc1ccc(F)cc1` (centres unmarked) [SM139], for which the IC50 at SARS-CoV-2 M^Pro [1] amounted to 10 µM. The kinact/KI at SARS-CoV-2 M^Pro [2] (read-out: M^Pro kinact/KI) came out at 25 M⁻¹ s⁻¹. Besides, the Ki at SARS-CoV-2 M^Pro [3] was found to be 65 µM.
`CCOC(=O)C=CC(CC1CCNC1=O)NC(=O)C(Cc1ccccc1)NC(=O)C(Cc1ccccc1)NC(=O)OC(C)(C)C` (centres unmarked) [SM140]: the values for the IC50 at SARS-CoV-2 M^Pro [1], on SARS-CoV-2 PL^Pro and at Cathepsin B were 2.2 µM, more than 50 µM and more than 50 µM, respectively. The kinact/KI at SARS-CoV-2 M^Pro [2] (read-out: M^Pro kinact/KI) is 150 M⁻¹ s⁻¹. For the same compound, on SARS-CoV-2 M^Pro [3], the inhibitory constant (Ki) was found to be 16 µM.
Take `CCOC(=O)C=CC(CC1CCNC1=O)NC(=O)C(Cc1ccccc1)NC(=O)C(N)Cc1ccc(F)cc1` (centres unmarked) [SM143]: the IC50 on SARS-CoV-2 M^Pro [1] is 0.9 µM; on SARS-CoV-2 PL^Pro, more than 50 µM; on Cathepsin L, 0.073 µM; at Cathepsin B, more than 50 µM. For the same compound, the values for the kinact/KI on Cathepsin L and at SARS-CoV-2 M^Pro [2] (read-out: M^Pro kinact/KI) were 2330 M⁻¹ s⁻¹ and 350 M⁻¹ s⁻¹, respectively. For the same compound, on SARS-CoV-2 M^Pro [3], the Ki stood at 7 µM.
In the case of `C#CCOCCC(=O)NC(Cc1ccccc1)C(=O)NC(Cc1ccccc1)C(=O)NC(C=CC(=O)OCC)CC1CCNC1=O` (centres unmarked) [SM145], the IC50 at SARS-CoV-2 M^Pro [1] is 0.8 µM; at SARS-CoV-2 PL^Pro it was more than 50 µM; on Cathepsin L, 0.2 µM; on Cathepsin B, more than 50 µM. The kinact/KI was 417 M⁻¹ s⁻¹ on Cathepsin L; 400 M⁻¹ s⁻¹ on SARS-CoV-2 M^Pro [2] (read-out: M^Pro kinact/KI); 400 M⁻¹ s⁻¹ at SARS-CoV-2 M^Pro [2] (read-out: second-order rate constant for enzyme inactivation (kinact/KI), M^Pro). Besides, the “antiviral activity compared with SM141 and SM142” value with SARS-CoV-2 is “significantly lower antiviral activity than SM141 and SM142”. Further, the Ki on SARS-CoV-2 M^Pro [3] is 5.3 µM.
In the case of `CC(C)(C)[C@H](NC(=O)C(F)(F)F)C(=O)N1C[C@H]2[C@@H]([C@H]1C(=O)N[C@H](C#N)C[C@@H]1CCNC1=O)C2(C)C` [nirmatrelvir], in the data set with CYP3A4/5, the CYP3A4/5 metabolism entry was “HIGH”. Further, the cytoxcity in the data set on A549-hACE2 cells was more than 3 µM. Moreover, in data set [4], the “Fa × Fg” value is 95%.
